In ChEMBL document CHEMBL1770126, “Molecular probes for the A2A adenosine receptor based on a pyrazolo[4,3-e][1,2,4]triazolo[1,5-c]pyrimidin-5-amine scaffold” (Bioorg Med Chem Lett, 2011):

How the values were obtained:
Assay type in all cases: cell-based
[1] = biological target: T1, Adenosine receptor A1 (Homo sapiens) (UniProt P30542); assay: Displacement of [3H]DPCPX from human recombinant adenosine A1 receptor expressed in CHO cells at 10 uM after 60 mins by liquid scintillation counting
T1 sequence (whole entry): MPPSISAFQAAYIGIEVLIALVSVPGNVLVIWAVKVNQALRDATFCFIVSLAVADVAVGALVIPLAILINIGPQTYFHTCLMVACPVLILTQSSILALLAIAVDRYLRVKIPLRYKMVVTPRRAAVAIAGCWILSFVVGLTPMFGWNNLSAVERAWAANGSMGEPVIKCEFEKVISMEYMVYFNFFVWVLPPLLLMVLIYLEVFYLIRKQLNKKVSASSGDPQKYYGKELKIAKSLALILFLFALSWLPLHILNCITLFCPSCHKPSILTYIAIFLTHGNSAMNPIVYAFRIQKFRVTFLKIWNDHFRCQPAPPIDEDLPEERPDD

Adenosine receptor A3 = biological target: T2, Adenosine receptor A3 (Homo sapiens, UniProt P0DMS8); assay: Displacement of [125I]I-AB-MECA from human recombinant adenosine A3 receptor expressed in CHO cells after 60 mins by gamma scintillation counting
T2 sequence (P0DMS8 whole entry): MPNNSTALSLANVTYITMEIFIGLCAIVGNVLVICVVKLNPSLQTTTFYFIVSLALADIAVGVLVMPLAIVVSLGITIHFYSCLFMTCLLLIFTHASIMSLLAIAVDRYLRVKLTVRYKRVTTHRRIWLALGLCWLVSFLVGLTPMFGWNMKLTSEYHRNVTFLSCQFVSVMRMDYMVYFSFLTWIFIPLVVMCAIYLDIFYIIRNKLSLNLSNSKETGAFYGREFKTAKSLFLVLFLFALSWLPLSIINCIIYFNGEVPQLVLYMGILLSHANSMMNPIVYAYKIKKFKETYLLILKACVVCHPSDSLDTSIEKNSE

Adenosine receptor A2a = Adenosine receptor A2a (Homo sapiens, UniProt P29274); assay: Displacement of [3H]CGS21680 from human recombinant adenosine A2A receptor expressed in HEK293 cells after 60 mins by liquid scintillation counting
Adenosine receptor A1 = biological target: T3, Adenosine receptor A1 (Homo sapiens, UniProt P30542); assay: Displacement of [3H]DPCPX from human recombinant adenosine A1 receptor expressed in CHO cells after 60 mins by liquid scintillation counting
T3 sequence (P30542 whole entry): T1 sequence (whole entry)

[2] = biological target: T4, Adenosine receptor A3 (Homo sapiens) (UniProt P0DMS8); assay: Displacement of [125I]I-AB-MECA from human recombinant adenosine A3 receptor expressed in CHO cells at 10 uM after 60 mins by gamma scintillation counting
T4 sequence (whole entry): T2 sequence (P0DMS8 whole entry)

Sequence of Adenosine receptor A2a (P29274 whole entry): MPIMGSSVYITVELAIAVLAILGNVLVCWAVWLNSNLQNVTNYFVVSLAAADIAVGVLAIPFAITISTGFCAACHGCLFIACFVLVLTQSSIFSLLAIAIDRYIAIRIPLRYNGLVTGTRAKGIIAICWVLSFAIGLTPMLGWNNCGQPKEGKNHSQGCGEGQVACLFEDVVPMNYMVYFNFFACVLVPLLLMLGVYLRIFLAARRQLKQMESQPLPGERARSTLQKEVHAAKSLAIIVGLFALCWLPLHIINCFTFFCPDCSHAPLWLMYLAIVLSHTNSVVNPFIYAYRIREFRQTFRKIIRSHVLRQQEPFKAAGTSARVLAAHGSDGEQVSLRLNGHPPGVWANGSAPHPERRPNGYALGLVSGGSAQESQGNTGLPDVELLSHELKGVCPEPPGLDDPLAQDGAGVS

inhibition [1]	Ki (Adenosine receptor A3)	Ki (Adenosine receptor A2a)	Ki (Adenosine receptor A1)	inhibition [2]	Compound
35%					COc1ccc(CCCn2ncc3c2nc(N)n2nc(-c4ccco4)nc32)cc1
	1280 nM	75.4 nM	1100 nM		C#CCCCCC(=O)NCCNC(=O)COc1ccc(CCCn2ncc3c2nc(N)n2nc(-c4ccco4)nc32)cc1
		96 nM	4840 nM	50%	COC(=O)COc1ccc(CCCn2ncc3c2nc(N)n2nc(-c4ccco4)nc32)cc1
	3970 nM	6.8 nM	1270 nM		NCCNC(=O)COc1ccc(CCCn2ncc3c2nc(N)n2nc(-c4ccco4)nc32)cc1
7%		357 nM		24%	CN(C)c1ccc2c(-c3ccc(C(=O)NCCNC(=O)COc4ccc(CCCn5ncc6c5nc(N)n5nc(-c7ccco7)nc65)cc4)cc3C(=O)[O-])c3ccc(=[N+](C)C)cc-3oc2c1
20%		111 nM		4%	N=c1ccc2c(-c3ccc(C(=O)NCCNC(=O)COc4ccc(CCCn5ncc6c5nc(N)n5nc(-c7ccco7)nc65)cc4)cc3C(=O)O)c3ccc(N)c(S(=O)(=O)O)c3oc-2c1S(=O)(=O)O
		10.2 nM	1700 nM	29%	Nc1nc2c(cnn2CCCc2ccc(OCC(=O)O)cc2)c2nc(-c3ccco3)nn12
	302 nM	220 nM	1700 nM		CC(=O)NCCn1cc(CCCCC(=O)NCCNC(=O)COc2ccc(CCCn3ncc4c3nc(N)n3nc(-c5ccco5)nc43)cc2)nn1
	1320 nM	53.6 nM	1000 nM		Nc1nc2c(cnn2CCCc2ccc(OCCCF)cc2)c2nc(-c3ccco3)nn12
		15.1 nM		28%	Nc1nc2c(cnn2CCCc2ccc(OCC(=O)NCCNCCNC(=O)CCCCCNC(=O)COc3ccc(/C=C/C4=[N+]5C(=Cc6ccc(-c7ccc[nH]7)n6[B-]5(F)F)C=C4)cc3)cc2)c2nc(-c3ccco3)nn12
			4440 nM		Nc1nc2c(cnn2CCCc2ccc(O)cc2)c2nc(-c3ccco3)nn12
20%	3290 nM	10.7 nM			NCCNCCNC(=O)COc1ccc(CCCn2ncc3c2nc(N)n2nc(-c4ccco4)nc32)cc1
